Test results taken from patent US20100209486A1, “Method of enhancing CoenzymeQ10 levels in mammals” (priority 2009, published 2010).
Entries after “also recorded” stand apart in the source; their conditions may differ.

Test: HPLC and MS determination of CoQ9 and CoQ10 in heart samples of supplemented guinea pigs
Type: in vivo, guinea pig
Details: 5 mg/kg/day CoQ9 oral for 4 weeks, heart tissue
Procedure: FIG. 3. HPLC chromatograms of a) Blank (mobile phase) b) CoQ9 standard solution c) CoQ10 standard solution and d) CoQ9 heart sample. The standards and sample solution were analyzed using an Agilent 1100 HPLC. The mobile phase was methanol-2-propanol-formic acid (45:55:0.05, v/v/v) containing methylamine at the concentration of 5 mmol/L. At a flow rate of 0.2 ml/min, 5 μl injections of the samples were done using the autosampler. The CoQ9 peak eluted at 2.39 minutes and the CoQ10 eluted at 2.86 minutes. However, the CoQ9 heart sample peak eluted at […], which is the same as CoQ10, thus indicating the presence of CoQ10 rather than CoQ9 in the sample.
FIG. 4. Mass Spectrometry (MS). (a) CoQ10 standard, b) CoQ9 standard, c) CoQ10 heart sample) Methylamine was used in the mobile phase to obtain the methyl ammonium adduct molecules of CoQ9 and CoQ10. The sensitivity of the adduct ions [M+CH3NH3]^+ was much higher than that of the protonated ions [M+H]^+ [7]. The MS spectra of both [M+CH3NH3][…] at m/z 826.5 for CoQ9 and m/z 894.6 for CoQ10 were observed. However, the CoQ9 heart sample indicated a mass peak at m/z 894.6, which matches the peak for CoQ10 and not CoQ9. Therefore, there was evidence of CoQ10 in the CoQ9 heart sample from the mass spec. data. This confirmed the hypothesis of bio-conversion of CoQ9 to CoQ10.
However, the retention time of CoQ9 heart sample indicated a retention time of 2.86 minutes and not 2.39 minutes (FIG. 3d). The retention time of the CoQ9 heart sample matched with that of CoQ10 rather than CoQ9. The qualitative analysis was done by identifying the compounds by their retention times. It was obvious that at this point CoQ9 was probably bio-converted to CoQ10. […]
Preparation of CoQ9 and CoQ10 heart samples: Animal preparation, drug pretreatment and isolated working heart preparation were done as described in example 1. […] The samples were analyzed immediately after preparation, and the remainder of the standard solutions was stored at 5° C. for future analysis. […]

SMILES: COC1=C(OC)C(=O)C(C/C=C(\C)CC/C=C(\C)CC/C=C(\C)CC/C=C(\C)CC/C=C(\C)CC/C=C(\C)CC/C=C(\C)CC/C=C(\C)CCC=C(C)C)=C(C)C1=O [CoQ9, Coenzyme Q9]
- CoQ9 detected in the heart after CoQ9 supplementation: no CoQ9 could be detected in the heart; also recorded: very small or no amount of CoQ9
- bioconversion of CoQ9 into CoQ10: a substantial portion of CoQ9 had been bio-converted into CoQ10; also recorded: complete bioconversion of CoQ9 into CoQ10
- CoQ10 content in the heart after CoQ9 supplementation (control chromatogram subtracted): appreciable amount of CoQ10 in the heart tissue; also recorded: significantly high enrichment in the CoQ10 content
